In series [1] the test system is SARS-2-PV bearing spike from ancestral strain Wuhan-1, entry into 293T-ACE2-TMPRSS2 cells. Type of series: cell-based, SARS-CoV-2. To be noted: for IC50: read-out: IC50, PV entry efficiency.
For series [2] the following is noted: cited from earlier work; for pKa: ref published literature and PubChem.
Series [3] concerns authentic SARS-CoV-2 (Wuhan-1) in Vero E6-TMPRSS2 cells. Type of series: cell-based.
Series [4] concerns SARS-CoV-2 (Wuhan-1) infection in Vero E6 cells. Put plainly: Authentic SARS-CoV-2. It is filed as cell-based. The following applies: preliminary dose ranging.
Series [5] has as its system SARS-CoV-2 (isolate USA-WA1/2020 or Wuhan-1). Details: species or system Syrian hamsters (Mesocricetus auratus). To be noted: hamster, in vivo.
For series [6] the following is noted: 120 mg/kg IP, mice; cited from earlier work.
The mark [7] stands for this setting: drug with two pKa values printed.

Where a name gives a salt, the structure may show the parent alone. Read-outs that look alike come from different tables or passages of the source. Where only a bound is given, the exact number is not on record here.

Regarding `NCCCNCCSP(=O)(O)O` [Amifostine], the “Inhibition of SARS-2-PV entry (in words)” value in series [1] was “did not inhibit virus entry”.
On to `CC(C)(S)C(=O)N[C@@H](CS)C(=O)O` [Bucillamine], for which the entries for the “pKa” value in series [2] (setting [7]) and in series [2] (thiol pKa) were 10.2 and 8.4, respectively.
Turning to `N[C@@H](CSCC(=O)O)C(=O)O` [Carbocysteine], the “Inhibition of SARS-2-PV entry (in words)” value in series [1] is recorded as “did not inhibit virus entry”. In series [3], the “Virus-induced cytopathic effects (in words)” value is “not effective”.
As to `NCCS` [Cysteamine], the IC50 (usually the concentration needed to halve the response being measured) in series [1] is around 1000 µM. Besides, the pKa (as a rule, the pH at which an ionisable group is half protonated) in series [2] (thiol pKa) is 8.2. Moreover, the “Virus-induced cytopathic effects (in words)” value in series [3] was “significantly decreased virus-induced cytopathic effects”. In series [4], the “Virus-induced cytopathic effects (in words)” value is given as “very effective at decreasing virus-induced cytopathic effects”. Also, in series [5], the Alveolar hemorrhage scores result is given as “significantly lower than in the control group”, the “Histopathology scores for mixed cell lung inflammation” value is “significantly lower than in the control group”, the “Lung weights (normalized to terminal body weights)” value was “significantly lower than in the control group” and the “Lymphocytes in BAL” value is “decreases”. Also, in series [5], the “Neutrophils in BAL” value is “decreases”, the “Total cell counts in BAL” value is recorded as “lower than in control treated animals”, the “Total protein in BAL” value is “lower” and the “Viral N2 gene transcripts in lung tissue” value is reported as “not significantly lower than in controls”.
For `O=S(=O)(O)CCS` [Mesna, 2-mercaptoethane sulfonate, sodium salt], the pKa in series [2] (thiol pKa) is listed as above 9.
On to `O=C(O)[C@@H](S)[C@@H](S)C(=O)O` [Succimer, Dimercaptosuccinic acid], for which the “pKa” value in series [2] (setting [7]) is on record as 10.8; in series [2] (thiol pKa), 8.9.
`CO[C@H]1O[C@H](CS)[C@H](O)[C@H](O)[C@H]1O` [TDG, methyl 6-thio-6-deoxy-α-D-galactopyranoside]: the “reported pKa” value in series [2] (TDG, thiol pKa, reported, reference not given) is reported as 9.6.
On to `NCCCNCCS` [WR-1065], for which the IC50 in series [1] was around 1000 µM. Moreover, the “Virus-induced cytopathic effects (in words)” value in series [4] is “very effective at decreasing virus-induced cytopathic effects”.
Consider `Cl.NCCS` [cysteamine hydrochloride], for which, in series [6], the Peak plasma concentration is given as 0.6 mM and the “Time of peak plasma concentration after administration” value was at most 5 min.

The values above are taken from PMC7743076 (bioRxiv, 2021).
